The source made the active and inactive calls. No cut-off for these calls is given here.
What was measured:
[1] = test system: HCT-116; assay: Induction of apoptosis in human HCT116 cells assessed as cytochrome C release from mitochondria to cytoplasm at 5 uM after 12 hrs by immunofluorescence assay; type: functional
[2] = test system: HCT-116; assay: Induction of apoptosis in human HCT116 cells assessed as early apoptotic cells at 2.5 uM after 24 hrs by Annexin V-FITC/propidium iodide staining based flow cytometry (reference value: 1.06%); type: functional
[3] = test system: HCT-116; assay: Induction of apoptosis in human HCT116 cells assessed as early apoptotic cells at 7.5 uM after 24 hrs by Annexin V-FITC/propidium iodide staining based flow cytometry (reference value: 1.06%); type: functional
[4] = test system: HCT-116; assay: Induction of apoptosis in human HCT116 cells assessed as late apoptotic cells at 10 uM after 24 hrs by Annexin V-FITC/propidium iodide staining based flow cytometry (reference value: 4.54%); type: functional
[5] = test system: HCT-116; assay: Induction of apoptosis in human HCT116 cells assessed as caspase activation at 5 uM after 24 hrs by CaspACEFITC-VAD-FMK staining based flow cytometry (reference value: 7.72%); type: functional
[6] = test system: HCT-116; assay: Induction of apoptosis in human HCT116 cells assessed as PARP cleavage at 5 uM after 6 to 24 hrs by Western blot analysis; type: functional, cell-based
[7] = test system: HCT-116; assay: Induction of apoptosis in human HCT116 cells assessed as early apoptotic cells at 5 uM after 24 hrs by Annexin V-FITC/propidium iodide staining based flow cytometry in presence of DTT (reference value: 2.2%); type: functional
[8] = test system: HCT-116; assay: Induction of apoptosis in human HCT116 cells assessed as depolarization of mitochondrial inner transmembrane potential after 24 hrs by TMRE staining based flow cytometry; type: functional, cell-based
[9] = test system: HCT-116; assay: Induction of apoptosis in human HCT116 cells assessed as decrease in Bcl-2 expression at 5 uM after 6 to 24 hrs by Western blot analysis; type: functional, cell-based
[10] = test system: HCT-116; assay: Induction of apoptosis in human HCT116 cells assessed as increase in BimEL expression at 5 uM after 6 to 24 hrs by Western blot analysis; type: functional, cell-based
[11] = test system: HCT-116; assay: Induction of apoptosis in human HCT116 cells assessed as changes in Bcl-X(L) expression at 5 uM after 6 to 24 hrs by Western blot analysis; type: functional, cell-based
[12] = test system: HCT-116; assay: Induction of Bcl-2 expression in human HCT116 cells at 5 uM after 4 to 12 hrs by qRT-PCR method; type: functional, cell-based
[13] = test system: HCT-116; assay: Induction of apoptosis in Bax deficient human HCT116 cells assessed as late apoptotic cells at 5 uM after 24 hrs by Annexin V-FITC/propidium iodide staining based flow cytometry (reference value: 1.5%); type: functional
[14] = test system: HCT-116; assay: Induction of apoptosis in Bax deficient human HCT116 cells after 24 hrs by Annexin V-FITC/propidium iodide staining based flow cytometry; type: functional, cell-based
[15] = test system: HCT-116; assay: Induction of autophagy in human HCT116 cells assessed as increase in LC3-2 level at 5 uM by Western blot analysis; type: functional, cell-based
[16] = test system: Mus musculus; assay: Hepatotoxicity in immune deficient nude BALB/c mouse xenografted with human HCT116 cells assessed as changes in albumin level in serum at 5 and 10 mg/kg, ip administered every other day for 2 weeks measured during compound dosing; type: toxicity, organism-based, HCT-116; settings: in vivo, 336 h

In the case of `CO[C@@H]1C(C=O)=CC[C@@H]2C3=C(C(C)C)CC[C@]3(C)CC[C@@]2(C)[C@H]1O`, the Activity [1] is reported as “Active”, the Activity [2] is reported as 2.23% and the Activity [3] is reported as 51.38%. For the same compound, the Activity [4] was 22.57%, the Activity [5] was 70.08% and the Activity [6] was “Active”. The Activity [7] was 5.58%, the Activity [8] was “Dose-dependent effect” and the Activity [9] was “Active”. The Activity [10] was “Active”, the Activity [11] was “inactive” and the Activity [12] was “Active”. For the same compound, the Activity [13] was 4.14%, the Activity [14] was “Dose-dependent effect” and the Activity [15] was “Active”. The Activity [16] was “Non-toxic”.

From ChEMBL document CHEMBL3769391, “Identification of a new cyathane diterpene that induces mitochondrial and autophagy-dependent apoptosis and shows a potent in vivo anti-colorectal cancer activity” (Eur J Med Chem, 2016)
